Test [1] has as its system Live BSF T. b. brucei. The settings on record: previously reported; cited from earlier work. An excerpt: Treatment of BSF African trypanosomes with SHP results in multiple physiological alterations. Addition of SHP-1 to BSF trypanosomes, which were subsequently immobilized in gelatin, decreases the fraction of laterally mobile surface exposed VSG (Fig. 2c). This effect may be directly due to increased membrane rigidity, or indirectly due to a decrease in the mobility of membrane spanning proteins and potential interactions with the VSG. Another physiological consequence, that may or may not be related to membrane rigidification, is SHP-induced changes in cell motility. Previously we reported that ...

Test [2] deals with Live BSF T. b. brucei. The test can be described thus: Trypanosome motility scoring by DIC microscopy. The settings on record: 40 µM SHP, 37°C, 1×10^7 cells/mL, HMI 9 with 10 % fetal bovine serum, DIC microscopy, at least duplicate (Fig. 2d). The test is classed as cell-based, Trypanosoma brucei brucei. The procedure: All images and videos were acquired with an Axio Observer Z1 equipped with an AxioCam MRm controlled by AxioVision 4.6 software. Videos were acquired with live cells at a density of 1×10^7 cells/mL in HMI 9 media with 10 % fetal bovine serum, incubated with 40 µM SHP at 37°C. Trypanosomes were visualized at magnification 63 × and videos were recorded with 100-ms acquisition times. The motility of BSF trypanosomes was scored directly or from video playback. Trypanosome motility was classified as normal, hyperactive or constricted as described previously. An example of a trypanosome scored as normal is shown in Movie S1. […] Data in figure 2D is shown as the average of at least duplicate trials with standard deviations.

For a further test, the system named is BSF T. b. brucei VSG. The test can be described thus: FRAP of surface VSG. The settings on record: 8 µM peptide, 10 min at 37°C, cells immobilized in gelatin, line FRAP at 20°C (Fig. 2c). The test is classed as cell-based, strain 427. The procedure: Bloodstream form T. b. brucei, strain 427, expressing VSG MITat1.6 were cultivated in HMI 9 media with 10% fetal calf serum. 1×10^7 cells were washed three times with ice cold trypanosome dilution buffer (TDB; 5 mM KCl, 80 mM NaCl, 1 mM MgSO4, 20 mM Na2HPO4, 2 mM NaH2PO4, 20 mM glucose, pH 7.6). The cell density was adjusted to 1×10^8 cells/mL and labeling of surface proteins was achieved by incubation with 1 µM sulfo-NHS coupled Atto 488 fluorescent dye (ATTO-TEC GmbH, Siegen) for 15 min on ice. After incubation the cells were washed three times with ice cold TDB to remove unbound dye. Labeled T. b. brucei cells were incubated with 8 µM SHP-1 for 10 min at 37°C. The fluorescently labeled cells were mixed 1∶3 with 10% Type-A gelatin from porcine skin (Sigma-Aldrich, Steinheim) in PBS, pH 7.8, at 37°C. 4 µL of the cell gelatin mixture was applied into a cover slide sandwich and mounted into a temperature controlled sample holder. The sample holder was cooled to 20°C until the cells were immobilized. Samples of SHP-1 treated and untreated MITat 1.6 wt cells were prepared identically. […] 10 pre-bleach and 100 post-bleach images were recorded at 2fps. VSG mobile fractions were determined according to Phair et al. (2004) using double normalization. The mobile fraction refers to the percentage of mobile VSG molecules within the measured region. […]

For “SDLGAVISLLLWGRQLFA [SHP-1, trypanocidal small hydrophobic peptide derived from an apolipoprotein, with characteristics of a secretory signal peptide]”, the “effect on motility of BSF trypanosomes” value with Live BSF T. b. brucei [1] is “initial hyperactivation followed by constricted motility and death”. In the test with Live BSF T. b. brucei [2], the “constriction of motility following hyperactivation” value was “subsequent constriction” and the hyperactivation of motility result is “hyperactivation”. In addition, the “fraction of laterally mobile surface exposed VSG” value in the test with BSF T. b. brucei VSG is reported as “decreases”.
